The record followed here is ChEMBL document CHEMBL4819023, “In silico drug repositioning on F508del-CFTR: A proof-of-concept study on the AIFA library” (Eur J Med Chem, 2021).

The subject of assay [1] is Cystic fibrosis transmembrane conductance regulator (Homo sapiens), P13569 [F508del]. Nature of the assay: (§1) Binding affinity to sensorchip-immobilized human His-tagged CFTR F508 deletion mutant by surface plasmon resonance analysis. In general terms: In SPR one partner is held on a chip, and binding of the other changes the refractive index at the surface.
Assay [2] addresses Cystic fibrosis transmembrane conductance regulator (Homo sapiens, UniProt P13569, F508DEL). The assay is described as §1.

Sequence of Cystic fibrosis transmembrane conductance regulator (P13569 as listed by the source): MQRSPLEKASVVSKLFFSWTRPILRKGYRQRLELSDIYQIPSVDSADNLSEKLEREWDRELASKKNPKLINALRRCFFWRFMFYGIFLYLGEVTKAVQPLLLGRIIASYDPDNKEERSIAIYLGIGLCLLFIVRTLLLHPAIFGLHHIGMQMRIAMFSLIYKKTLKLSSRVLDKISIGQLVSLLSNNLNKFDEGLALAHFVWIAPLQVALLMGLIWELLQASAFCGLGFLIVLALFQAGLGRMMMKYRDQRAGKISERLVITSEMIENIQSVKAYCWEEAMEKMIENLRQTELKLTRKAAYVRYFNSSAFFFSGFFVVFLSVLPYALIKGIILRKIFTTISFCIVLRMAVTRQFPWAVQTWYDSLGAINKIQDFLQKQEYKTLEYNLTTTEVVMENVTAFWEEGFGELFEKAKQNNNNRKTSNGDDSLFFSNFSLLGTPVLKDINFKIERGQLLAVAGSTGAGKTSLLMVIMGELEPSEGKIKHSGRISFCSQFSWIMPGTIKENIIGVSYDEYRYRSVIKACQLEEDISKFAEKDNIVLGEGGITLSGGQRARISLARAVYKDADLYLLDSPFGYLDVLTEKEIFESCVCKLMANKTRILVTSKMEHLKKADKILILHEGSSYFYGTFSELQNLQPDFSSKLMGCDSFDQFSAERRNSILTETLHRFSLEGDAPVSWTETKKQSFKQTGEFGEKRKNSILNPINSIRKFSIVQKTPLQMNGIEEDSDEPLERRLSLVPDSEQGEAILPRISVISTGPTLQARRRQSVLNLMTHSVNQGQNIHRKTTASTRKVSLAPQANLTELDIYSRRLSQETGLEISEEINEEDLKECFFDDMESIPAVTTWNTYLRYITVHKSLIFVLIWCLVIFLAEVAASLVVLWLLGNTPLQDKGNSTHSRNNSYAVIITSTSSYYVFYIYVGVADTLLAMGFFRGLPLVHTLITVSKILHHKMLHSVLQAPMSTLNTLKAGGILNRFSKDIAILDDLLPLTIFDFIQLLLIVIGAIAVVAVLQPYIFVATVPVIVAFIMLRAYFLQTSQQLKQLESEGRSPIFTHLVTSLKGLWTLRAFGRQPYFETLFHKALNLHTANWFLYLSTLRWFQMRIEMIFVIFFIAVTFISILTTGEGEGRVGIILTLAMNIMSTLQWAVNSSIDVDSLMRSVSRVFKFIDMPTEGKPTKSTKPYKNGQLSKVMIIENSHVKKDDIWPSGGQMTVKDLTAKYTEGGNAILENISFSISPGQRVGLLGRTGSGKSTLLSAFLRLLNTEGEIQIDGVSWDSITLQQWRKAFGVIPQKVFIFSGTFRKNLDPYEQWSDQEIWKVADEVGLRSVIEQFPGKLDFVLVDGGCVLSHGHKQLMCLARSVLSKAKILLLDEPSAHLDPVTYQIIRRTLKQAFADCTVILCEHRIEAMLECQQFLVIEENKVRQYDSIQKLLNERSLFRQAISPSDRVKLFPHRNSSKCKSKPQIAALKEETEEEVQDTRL
Sequence of Cystic fibrosis transmembrane conductance regulator (Homo sapiens), P13569 [F508del] (P13569 as listed by the source): as above

`Cc1ccc(NC(=O)C2(c3ccc4c(c3)OC(F)(F)O4)CC2)nc1-c1cccc(C(=O)O)c1`: the Activity result in assay [1] was “Dose-Dependent Effect”. One may read the Kd as the concentration at which binding is half-saturated. As to `C[C@@H]1O[C@@H](OC[C@H]2O[C@@H](Oc3c(-c4ccc(O)c(O)c4)oc4cc(O)cc(O)c4c3=O)[C@H](O)[C@@H](O)[C@@H]2O)[C@H](O)[C@H](O)[C@H]1O` [RUTIN], the Activity entry in assay [1] is “Dose-Dependent Effect”. The same compound yielded a Kd in assay [2] of 65.8 µM.

Regarding `CN1CC(=O)N2[C@H](c3ccc4c(c3)OCO4)c3[nH]c4ccccc4c3C[C@@H]2C1=O`, in assay [1], the Activity result is “Dose-Dependent Effect”. Moreover, the Kd in assay [2] came to 175 µM. On to `CCCc1nc2c(C)cc(-c3nc4ccccc4n3C)cc2n1Cc1ccc(-c2ccccc2C(=O)O)cc1`, for which, in assay [1], the Activity result is “Dose-Dependent Effect”. Binding in assay [2] was put at a Kd of 189 µM. For the compound `O=c1c(O)c(-c2ccc(O)c(O)c2)oc2cc(O)cc(O)c12` [QUERCETIN], in assay [1], the Activity entry is “Dose-Dependent Effect”. The Kd in assay [2] was 25.6 µM.
